For data set [1], the system named is Mycobacterium tuberculosis. In words: Tuberculostatic activity against Mycobacterium tuberculosis H37Rv by two-fold classical test-tube method. Type of data set: functional.
Data set [2] can be described thus: Cytotoxicity against mouse B16F10 cells after 7 days by MTT/SRB assay. It is filed as cell-based. The following applies: B16-F10, 168 h. (The SRB assay estimates cell density from bound dye.)
Data set [3] concerns Mycobacterium tuberculosis. In words: Tuberculostatic activity against Mycobacterium tuberculosis Spec. 210 by two-fold classical test-tube method. It is filed as functional.
The nature of data set [4]: Cytotoxicity against neonatal HDF cells after 7 days by MTT/SRB assay. It is filed as cell-based. Particulars: Homo sapiens, 168 h.
Data set [5] is described as follows: Cytotoxicity against HEK cells after 7 days by MTT/SRB assay. It is filed as cell-based. Particulars: Homo sapiens, HEK293, 168 h.
In data set [6] the test system is Mycobacterium tuberculosis. In words: Tuberculostatic activity against Mycobacterium tuberculosis Spec. 192 by two-fold classical test-tube method. It is filed as functional.
Data set [7] can be described thus: Selectivity ratio of IC50 for neonatal HDF cells to MIC for Mycobacterium tuberculosis H37Rv. Type of data set: ADME, cell-based. The following applies: human.
A short description of data set [8]: Selectivity ratio of IC50 for neonatal HDF cells to MIC for Mycobacterium tuberculosis Spec. 192. It is filed as ADME, cell-based. The following applies: human.
Data set [9] in a line: Selectivity ratio of IC50 for mouse B16F10 cells to MIC for Mycobacterium tuberculosis Spec. 192. It is filed as ADME, cell-based, B16-F10.
Data set [10] is described as follows: Selectivity ratio of IC50 for mouse B16F10 cells to MIC for Mycobacterium tuberculosis H37Rv. Type of data set: ADME, cell-based, B16-F10.
Data set [11] can be described thus: Selectivity ratio of IC50 for neonatal HDF cells to MIC for Mycobacterium tuberculosis Spec. 210. It is filed as ADME, cell-based. The following applies: human.
A short description of data set [12]: Selectivity ratio of IC50 for mouse B16F10 cells to MIC for Mycobacterium tuberculosis Spec. 210. It is filed as ADME, cell-based, B16-F10.

Drawing on ChEMBL document CHEMBL3399921, “Novel 2-(2-phenalkyl)-1H-benzo[d]imidazoles as antitubercular agents. Synthesis, biological evaluation and structure-activity relationship” (Bioorg Med Chem, 2015), this text covers MIC, IC50 and selectivity ratio for 30 compounds.

The term MIC denotes the smallest concentration in the dilution series that meets the test's criterion for growth inhibition. A higher MIC goes with weaker potency. Broadly, the IC50 is the concentration that gives 50% inhibition.

≈ marks a conversion by molar mass, not a printed value. Bounds are passed on as bounds.

In the case of `Cc1cc2nc(CCc3ccccc3)[nH]c2cc1C`, the MIC in data set [1], in data set [3] and in data set [6] was 6.3 µM (≈ 1.58 µg/mL) in each case. For the same compound, the IC50 in data set [2] was 3.9 µM; in data set [4], 7.9 µM; in data set [5] it was 2.5 µM.

As for `Nc1c(NC(=O)CCc2ccccc2)cc(Cl)cc1[N+](=O)[O-]`, the minimal inhibitory concentration (MIC) in data set [1], in data set [3] and in [6] was 320 µM (≈ 102 µg/mL) throughout.

Consider `Fc1ccc2[nH]c(CCc3cc(Cl)cc(Cl)c3)nc2c1`, for which the MIC in [1], in [3] and in [6] was 320 µM (≈ 98.9 µg/mL) each time.

On to `CO[C@H]1/C=C/O[C@@]2(C)Oc3c(C)c(O)c4c(O)c(c(/C=N/N5CCN(C)CC5)c(O)c4c3C2=O)NC(=O)/C(C)=C\C=C\[C@H](C)[C@H](O)[C@@H](C)[C@@H](O)[C@@H](C)[C@H](OC(C)=O)[C@@H]1C` [RIFAMPIN], for which the values for the MIC in data set [1], in [3] and in data set [6] were 1.4 µM (≈ 1.15 µg/mL), 2.8 µM (≈ 2.3 µg/mL) and 1.4 µM (≈ 1.15 µg/mL), respectively.

For the compound `Cc1cc2nc(CCc3cc(Cl)cc(Cl)c3)n(S(C)(=O)=O)c2cc1C`, the MIC stood at 32 µM (≈ 12.7 µg/mL) in [1], 32 µM (≈ 12.7 µg/mL) in data set [3] and 63 µM (≈ 25 µg/mL) in [6].

For `Cc1cc2nc(/C=C/c3ccccc3)n(S(C)(=O)=O)c2cc1C`, the MIC in data set [1], in data set [3] and in [6] was 310 µM (≈ 101 µg/mL) throughout.

Consider `C(=C\c1nc2cc3ccccc3cc2[nH]1)/c1ccccc1`, for which the MIC in data set [1], in data set [3] and in [6] was 93 µM (≈ 25.1 µg/mL) throughout.

For `O=S(=O)(c1ccccc1)n1c(CCc2cc(Cl)cc(Cl)c2)nc2cc(F)ccc21`, the MIC in [1] amounted to 56 µM (≈ 25.2 µg/mL); in data set [3], 56 µM (≈ 25.2 µg/mL); in [6], 112 µM (≈ 50.3 µg/mL).

Take `Fc1ccc2[nH]c(CCc3ccccc3)nc2c1`: the MIC in data set [1] turned out to be 104 µM (≈ 25 µg/mL); in [3], 208 µM (≈ 50 µg/mL); in [6], 208 µM (≈ 50 µg/mL).

Regarding `CS(=O)(=O)n1c(CCc2ccccc2)nc2cc(F)ccc21`, the MIC in data set [1], in data set [3] and in data set [6] was 314 µM (≈ 100 µg/mL) each time.

Turning to `O=[N+]([O-])c1cc(Cl)cc2[nH]c(CCc3cc(Cl)cc(Cl)c3)nc12`, the minimal inhibitory concentration (MIC) was 68 µM (≈ 25.2 µg/mL) in data set [1], 271 µM (≈ 100 µg/mL) in data set [3] and 68 µM (≈ 25.2 µg/mL) in [6].

Consider `CS(=O)(=O)n1c(/C=C/c2ccccc2)nc2cc(F)ccc21`, for which the MIC in [1], in data set [3] and in data set [6] was 158 µM (≈ 50 µg/mL) in each case.

Consider `CS(=O)(=O)n1c(/C=C/c2cc(Cl)cc(Cl)c2)nc2cc(F)ccc21`, for which the MIC in data set [1] came to 130 µM (≈ 50.1 µg/mL); in data set [3], 130 µM (≈ 50.1 µg/mL); in data set [6], 259 µM (≈ 99.8 µg/mL).

Regarding `Cc1cc2nc(CCc3ccccc3)n(S(=O)(=O)c3ccccc3)c2cc1C`, the MIC in data set [1] amounted to 128 µM (≈ 50 µg/mL); in data set [3], 128 µM (≈ 50 µg/mL); in data set [6], 64 µM (≈ 25 µg/mL).

As to `O=[N+]([O-])c1cc(Cl)cc2[nH]c(CCc3ccccc3)nc12`, the MIC in [1], in [3] and in data set [6] was 330 µM (≈ 99.6 µg/mL) each time.

With `c1ccc(CCc2nc3cc4ccccc4cc3[nH]2)cc1`, the MIC in data set [1], in data set [3] and in data set [6] was 370 µM (≈ 101 µg/mL) in each case.

As for `Cc1cc2nc(/C=C/c3ccccc3)n(S(=O)(=O)c3ccccc3)c2cc1C`, the MIC in data set [1], in data set [3] and in [6] was 258 µM (≈ 100 µg/mL) throughout.

Consider `Cc1cc2nc(CCc3ccccc3)n(S(C)(=O)=O)c2cc1C`, for which the MIC in data set [1], in data set [3] and in data set [6] was 76 µM (≈ 25 µg/mL) each time.

As to `Cc1cc2nc(CCc3cc(Cl)cc(Cl)c3)n(S(=O)(=O)c3ccccc3)c2cc1C`, the MIC in data set [1], in [3] and in data set [6] was 55 µM (≈ 25.3 µg/mL) in each case.

For `Clc1cc(Cl)cc(CCc2nc3cc4ccccc4cc3[nH]2)c1`, the MIC in data set [1], in [3] and in [6] was 18 µM (≈ 6.14 µg/mL) throughout.

Regarding `O=[N+]([O-])c1cc(Cl)cc2[nH]c(/C=C/c3ccccc3)nc12`, the results for the MIC in [1], in data set [3] and in data set [6] were 170 µM (≈ 51 µg/mL), 340 µM (≈ 102 µg/mL) and 170 µM (≈ 51 µg/mL), respectively.

Take `Cc1cc2nc(/C=C/c3ccccc3)[nH]c2cc1C`: the MIC is 25 µM (≈ 6.21 µg/mL) in data set [1], 25 µM (≈ 6.21 µg/mL) in data set [3] and 13 µM (≈ 3.23 µg/mL) in [6].

With `O=S(=O)(c1ccccc1)n1c(/C=C/c2ccccc2)nc2cc(F)ccc21`, the MIC is 132 µM (≈ 50 µg/mL) in data set [1], 264 µM (≈ 99.9 µg/mL) in data set [3] and 132 µM (≈ 50 µg/mL) in [6].

In the case of `O=S(=O)(c1ccccc1)n1c(CCc2ccccc2)nc2cc(F)ccc21`, the MIC in [1], in data set [3] and in [6] was 263 µM (≈ 100 µg/mL) each time.

On to `Nc1c(NC(=O)/C=C/c2ccccc2)cc(Cl)cc1[N+](=O)[O-]`, for which the MIC in data set [1], in data set [3] and in [6] was 320 µM (≈ 102 µg/mL) throughout.

For the compound `Nc1c(NC(=O)CCc2cc(Cl)cc(Cl)c2)cc(Cl)cc1[N+](=O)[O-]`, the MIC in [1] was 8 µM (≈ 3.11 µg/mL); in data set [3], 65 µM (≈ 25.3 µg/mL); in data set [6], 8 µM (≈ 3.11 µg/mL). Besides, the values for the IC50 in data set [2], in data set [4] and in data set [5] were 59 µM, 80 µM and 5.1 µM, respectively. Also, the selectivity ratio in data set [7] came to 10; in data set [8], 10; in data set [9], 7.5; in data set [10] it was 7.5.

`NC(=O)c1cnccn1` [PYRAZINAMIDE]: the MIC was 203 µM (≈ 25 µg/mL) in data set [1], 3250 µM (≈ 400 µg/mL) in data set [3] and 203 µM (≈ 25 µg/mL) in [6].

Take `Cc1cc2nc(CCc3cc(Cl)cc(Cl)c3)[nH]c2cc1C`: the figures for the MIC in data set [1], in data set [3] and in data set [6] were 2.5 µM (≈ 0.798 µg/mL), 5 µM (≈ 1.6 µg/mL) and 5 µM (≈ 1.6 µg/mL), respectively. The IC50 was determined as 28 µM in [2], 58 µM in [4] and 7.8 µM in data set [5]. In addition, the selectivity ratio is greater than 11 in data set [11], greater than 11 in [8], 6 in data set [9] and 6 in data set [12].

For the compound `Fc1ccc2[nH]c(/C=C/c3ccccc3)nc2c1`, the MIC in [1] stood at 210 µM (≈ 50 µg/mL); in [3] it was 105 µM (≈ 25 µg/mL); in [6], 210 µM (≈ 50 µg/mL).

For the compound `NNC(=O)c1ccncc1` [ISONIAZID], the values for the MIC in data set [1], in data set [3] and in data set [6] were 91 µM (≈ 12.5 µg/mL), 182 µM (≈ 25 µg/mL) and 91 µM (≈ 12.5 µg/mL), respectively.
